Assay: xn = mol fraction of the nth substance listed
Details: Liquid, Vibrating tube method, x1 = 0.4891

Cc1cccc(O)c1 [3-methylphenol] + Cc1ccccc1O
Details | mass density [kg/m3]
313.19 K, 103.35 kPa | 1023.8
313.19 K, 206.8 kPa | 1024.3
313.19 K, 308.94 kPa | 1024.9
313.19 K, 406.72 kPa | 1025.5
313.19 K, 509.16 kPa | 1026
313.19 K, 609.17 kPa | 1026.6
313.19 K, 710.69 kPa | 1027.1
313.19 K, 813.34 kPa | 1027.7
313.19 K, 912.33 kPa | 1028.3
313.19 K, 1014.1 kPa | 1028.8
313.19 K, 1115.4 kPa | 1029.3
313.19 K, 1219.9 kPa | 1029.9
313.19 K, 1317.7 kPa | 1030.4
313.19 K, 1421.7 kPa | 1031
313.19 K, 1522.3 kPa | 1031.5
313.19 K, 1625.4 kPa | 1032.1
313.19 K, 1723.2 kPa | 1032.6
313.19 K, 1824.4 kPa | 1033.1
313.19 K, 1926.4 kPa | 1033.6
313.19 K, 2026.8 kPa | 1034.1
313.19 K, 2129.3 kPa | 1034.7
313.19 K, 2229.4 kPa | 1035.2
313.19 K, 2333 kPa | 1035.7
313.19 K, 2433.2 kPa | 1036.2
313.19 K, 2532.9 kPa | 1036.7
323.14 K, 101.12 kPa | 1015.4
323.14 K, 206.5 kPa | 1016
323.14 K, 310.87 kPa | 1016.6
323.14 K, 408.14 kPa | 1017.1
323.14 K, 510.78 kPa | 1017.8
323.14 K, 609.67 kPa | 1018.3
323.14 K, 712.01 kPa | 1018.9
323.14 K, 812.42 kPa | 1019.5
323.14 K, 916.79 kPa | 1020.1
323.14 K, 1012.2 kPa | 1020.6
323.14 K, 1115.9 kPa | 1021.2
323.14 K, 1217.9 kPa | 1021.8
323.14 K, 1321.1 kPa | 1022.4
323.14 K, 1420.2 kPa | 1022.9
323.14 K, 1520.1 kPa | 1023.5
323.14 K, 1622.5 kPa | 1024
323.14 K, 1723.3 kPa | 1024.6
323.14 K, 1823.7 kPa | 1025.1
323.14 K, 1926.1 kPa | 1025.6
323.14 K, 2028 kPa | 1026.2
323.14 K, 2128.7 kPa | 1026.7
323.14 K, 2232.2 kPa | 1027.3
323.14 K, 2331 kPa | 1027.8
323.14 K, 2434.8 kPa | 1028.4
323.14 K, 2533.2 kPa | 1028.9
333.08 K, 104.06 kPa | 1007
333.08 K, 209.13 kPa | 1007.6
333.08 K, 305.29 kPa | 1008.2
333.08 K, 408.54 kPa | 1008.8
333.08 K, 507.94 kPa | 1009.4
333.08 K, 610.79 kPa | 1010.1
333.08 K, 708.67 kPa | 1010.6
333.08 K, 812.42 kPa | 1011.3
333.08 K, 913.04 kPa | 1011.9
333.08 K, 1015.7 kPa | 1012.5
333.08 K, 1115.2 kPa | 1013
333.08 K, 1217.7 kPa | 1013.7
333.08 K, 1318 kPa | 1014.2
333.08 K, 1419 kPa | 1014.8
333.08 K, 1520.9 kPa | 1015.4
333.08 K, 1624.9 kPa | 1016
333.08 K, 1724.2 kPa | 1016.6
333.08 K, 1824.2 kPa | 1017.1
333.08 K, 1925.9 kPa | 1017.7
333.08 K, 2031 kPa | 1018.3
333.08 K, 2132.9 kPa | 1018.9
333.08 K, 2232.5 kPa | 1019.4
333.08 K, 2336 kPa | 1020
333.08 K, 2438 kPa | 1020.6
333.08 K, 2536.6 kPa | 1021.1
343.04 K, 103.66 kPa | 998.4
343.04 K, 208.53 kPa | 999
343.04 K, 305.8 kPa | 999.7
343.04 K, 406.72 kPa | 1000.3
343.04 K, 510.78 kPa | 1001
343.04 K, 609.67 kPa | 1001.6
343.04 K, 711.4 kPa | 1002.3
343.04 K, 812.12 kPa | 1002.9
343.04 K, 912.13 kPa | 1003.5
343.04 K, 1014 kPa | 1004.1
343.04 K, 1115.1 kPa | 1004.8
343.04 K, 1220.8 kPa | 1005.4
343.04 K, 1318.1 kPa | 1006
343.04 K, 1420.7 kPa | 1006.6
343.04 K, 1520.6 kPa | 1007.2
343.04 K, 1621 kPa | 1007.9
343.04 K, 1722.2 kPa | 1008.4
343.04 K, 1824.6 kPa | 1009.1
343.04 K, 1925.9 kPa | 1009.7
343.04 K, 2028.3 kPa | 1010.2
343.04 K, 2130 kPa | 1010.8
343.04 K, 2233.9 kPa | 1011.4
343.04 K, 2330.6 kPa | 1011.9
343.04 K, 2432 kPa | 1012.5
343.04 K, 2536.8 kPa | 1013.1
352.98 K, 105.78 kPa | 990
352.98 K, 204.88 kPa | 990.6
352.98 K, 305.29 kPa | 991.3
352.98 K, 408.64 kPa | 992
352.98 K, 509.16 kPa | 992.6
352.98 K, 610.18 kPa | 993.3
352.98 K, 707.96 kPa | 993.9
352.98 K, 810.8 kPa | 994.7
352.98 K, 913.45 kPa | 995.3
352.98 K, 1013.5 kPa | 996
352.98 K, 1116.7 kPa | 996.6
352.98 K, 1217.9 kPa | 997.2
352.98 K, 1316.1 kPa | 997.9
352.98 K, 1418 kPa | 998.5
352.98 K, 1519.3 kPa | 999.1
352.98 K, 1623.4 kPa | 999.8
352.98 K, 1723.3 kPa | 1000.4
352.98 K, 1821.8 kPa | 1001
352.98 K, 1928 kPa | 1001.7
352.98 K, 2027.3 kPa | 1002.3
352.98 K, 2129.3 kPa | 1002.9
352.98 K, 2237.1 kPa | 1003.5
352.98 K, 2331.9 kPa | 1004.2
352.98 K, 2437.8 kPa | 1004.8
352.98 K, 2536.4 kPa | 1005.4
362.91 K, 106.69 kPa | 981.5
362.91 K, 203.97 kPa | 982.2
362.91 K, 305.9 kPa | 982.9
362.91 K, 407.53 kPa | 983.6
362.91 K, 510.78 kPa | 984.3
362.91 K, 608.36 kPa | 985
362.91 K, 708.57 kPa | 985.7
362.91 K, 811.21 kPa | 986.3
362.91 K, 912.33 kPa | 987
362.91 K, 1013.1 kPa | 987.7
362.91 K, 1114.2 kPa | 988.3
362.91 K, 1215.1 kPa | 989
362.91 K, 1318.3 kPa | 989.7
362.91 K, 1418.7 kPa | 990.3
362.91 K, 1520.8 kPa | 991
362.91 K, 1622.2 kPa | 991.7
362.91 K, 1723.8 kPa | 992.3
362.91 K, 1825.8 kPa | 993
362.91 K, 1926.1 kPa | 993.6
362.91 K, 2030.7 kPa | 994.3
362.91 K, 2128.7 kPa | 994.9
362.91 K, 2230.1 kPa | 995.5
362.91 K, 2332.4 kPa | 996.2
362.91 K, 2434.6 kPa | 996.8
362.91 K, 2536.1 kPa | 997.5

Reference: the NIST ThermoML archive (doi:10.1021/je400055v)
